Source: patent publication US20240228555A9, “ANTIMICROBIAL PEPTIDOMIMETICS” (Basilea Pharmaceutica International AG, Allschwil, priority 2020, published 2024)
Where a SMILES comes first, the peptide text is derived from it. Bridges are numbered along the chain shown (N, C = ends). [ ]: non-standard residue; d: D form. Orn(iPr) = CC(C)NCCC[C@H](N)C(=O)O; Dab(iPr) = CC(C)NCC[C@H](N)C(=O)O; Hyp = O=C(O)[C@@H]1C[C@@H](O)CN1; Pen = CC(C)(S)[C@H](N)C(=O)O; dDab = NCC[C@@H](N)C(=O)O; Dab = NCC[C@H](N)C(=O)O

Key:
[1] = test system: human red blood cells (hRBC); assay type: cell-based; conditions: red cells of human, 1 h, 0.2 g/L
Description: (§1) Lyophilized peptides were weighed on a Microbalance (Mettler MT5) and dissolved in sterile water to a final concentration of 1 mg/mL. Stock solutions were kept at +4° C., light protected.
The peptides were tested for their hemolytic activity against human red blood cells (hRBC). Fresh hRBC were washed three times with phosphate buffered saline (PBS) and centrifuged for 5 min at 3000×g. Compounds (200 μg/mL) were incubated with 20% hRBC (v/v) for 1 h at 37° C. and shaking at 300 rpm. A value of 0% and 100% cell lyses, respectively, was determined by incubation of hRBC in the presence of PBS and 2.5% Triton X-100 in H2O, respectively. The samples were centrifuged, the supernatants were 8-fold diluted in PBS buffer and the optical densities (OD) were measured at 540 nm. The 100% lyses value (OD540H2O) gave an OD540 of approximately 0.5-1.0.
Percent hemolysis was calculated as follows: (OD540peptide/OD540H2O)×100%.

[2] = test system: Escherichia coli ATCC 25922; conditions: ATCC 25922
Description: as §1
(§2) Colonies of the microorganisms were diluted in saline (0.85%, NaCl) and adjusted using a McFarland reader (bioMérieux SA, Marcy-l'Etoile, France) to 0.5 McFarland standard. Subsequently, the bacterial suspension was diluted in Mueller-Hinton II (MHII, cation adjusted) broth to give approximately 5×10^5 colony forming units (CFU/mL).
(§3) 10^6 colony forming units (CFU)/mL. Aliquots (90 μl) of inoculate were added to 10 μl of water+P-80 (Polysorbate 80, 0.002% final concentration) containing the peptide in serial two-fold dilutions at 10 fold final concentration. The following microorganisms were used to determine antibiotic selectivity of the peptides: Escherichia coli ATCC 25922, Escherichia coli MCR-1 Af 45 and Klebsiella pneumoniae SSI3010.

[3] = test system: Klebsiella pneumoniae SSI3010; conditions: SSI3010
Description: as §1, §2, §3

[4] = test system: Escherichia coli MCR-1 Af 45; conditions: Mueller-Hinton broth II, no visible growth after 18-20 hours at 35° C.
Description: as §1, §2, §3

SMILES | Hemolysis at 0.2 g/L [1] | Escherichia coli ATCC 25922 MIC [2] | Klebsiella pneumoniae SSI3010 MIC [3] | Escherichia coli MCR-1 Af 45 MIC [4]
CC[C@H](C)[C@H](NC(=O)[C@@H]1C[C@@H](O)CN1C(=O)[C@@H](N)C(C)C)C(=O)N[C@H](C(=O)N[C@@H](Cc1ccc(O)cc1)C(=O)N[C@@H]1C(=O)N[C@@H](CC(N)=O)C(=O)N[C@@H](CCCNC(=N)N)C(=O)N[C@@H](CCNC(C)C)C(=O)N[C@@H]([C@@H](C)O)C(=O)N[C@H](CCN)C(=O)N[C@@H](CCCCN)C(=O)N[C@H](C(=O)N[C@@H](CCN)C(=O)N[C@@H](CCCNC(C)C)C(=O)N[C@@H](Cc2ccc(O)cc2)C(=O)O)CSSC1(C)C)[C@@H](C)O [Example 134, Hyp-Ile-Thr-Tyr-Pen-Asn-Arg-Dab(iPr)-Thr-^DDab-Lys-Cys-Dab-Orn(iPr)-Tyr] (H-V[Hyp]ITY[Pen]NR[Dab(iPr)]T[dDab]KC[Dab][Orn(iPr)]Y-OH; disulfide 6-13) | 1% | 0.125 µg/mL | 0.5 µg/mL | 0.25 µg/mL
CC[C@H](C)[C@H](NC(=O)[C@@H](NC(=O)[C@@H]1C[C@@H](O)CN1C(=O)[C@@H](N)C(C)C)[C@@H](C)CC)C(=O)N[C@@H](Cc1ccc(O)cc1)C(=O)N[C@@H]1C(=O)N[C@@H](CC(N)=O)C(=O)N[C@@H](CCCNC(=N)N)C(=O)N[C@@H](CCN)C(=O)N[C@@H](CO)C(=O)N[C@H](CCN)C(=O)N[C@@H](CCCCN)C(=O)N[C@H](C(=O)N[C@@H](CCN)C(=O)N[C@H](C(=O)N[C@@H](Cc2ccc(O)cc2)C(=O)O)[C@@H](C)O)CSSC1(C)C [Example 112, Val-Hyp-Ile-Ile-Tyr-Pen-Asn-Arg-Dab-Ser-^DDab-Lys-Cys-Dab-Thr-Tyr] (HELM PEPTIDE1{V.[Hyp].I.I.Y.[Pen].N.R.[Dab].S.[NCC[C@@H](N[*:1])C(=O)[*:2]].K.C.[Dab].T.Y}$PEPTIDE1,PEPTIDE1,6:R3-13:R3$$$V2.0) | <1% | 0.25 µg/mL | 0.25 µg/mL | 0.0625 µg/mL
CC[C@H](C)[C@@H]1NC(=O)[C@@H](NC(=O)[C@H](Cc2ccc(O)cc2)NC(=O)[C@@H](NC(=O)[C@@H](NC(=O)[C@@H]2C[C@@H](O)CN2C(=O)[C@@H](N)C(C)(C)C)[C@@H](C)CC)[C@@H](C)O)C(C)(C)SSC[C@@H](C(=O)N[C@@H](CCN)C(=O)N[C@@H](CCCN)C(=O)N[C@@H](Cc2ccc(O)cc2)C(=O)O)NC(=O)[C@H](CCCCN)NC(=O)[C@@H](CCN)NC(=O)[C@H]([C@@H](C)O)NC(=O)[C@H](CCN)NC(=O)[C@H](CCCNC(=N)N)NC1=O [Example 95, tBuGly-Hyp-Ile-Thr-Tyr-Pen-Ile-Arg-Dab-Thr-^DDab-Lys-Cys-Dab-Orn-Tyr] (HELM PEPTIDE1{[CC(C)(C)[C@H](N)C(=O)[*:2]].[Hyp].I.T.Y.[Pen].I.R.[Dab].T.[NCC[C@@H](N[*:1])C(=O)[*:2]].K.C.[Dab].[Orn].Y}$PEPTIDE1,PEPTIDE1,6:R3-13:R3$$$V2.0) | <1% | 0.125 µg/mL | 0.25 µg/mL | 0.125 µg/mL
CC[C@H](C)[C@H](NC(=O)[C@@H]1C[C@@H](O)CN1C(=O)[C@@H](N)C(C)C)C(=O)N[C@@H](CCN)C(=O)N[C@@H](Cc1ccc(O)cc1)C(=O)N[C@@H]1C(=O)N[C@@H](CC(N)=O)C(=O)N[C@@H](CCCNC(=N)N)C(=O)N[C@@H](CCN)C(=O)N[C@@H]([C@@H](C)O)C(=O)N[C@H](CCN)C(=O)N[C@@H](CCCNC(N)=O)C(=O)N[C@H](C(=O)N[C@@H](CCN)C(=O)N[C@H](C(=O)N[C@@H](Cc2ccc(O)cc2)C(=O)O)[C@@H](C)O)CSSC1(C)C [Example 113, Val-Hyp-Ile-Dab-Tyr-Pen-Asn-Arg-Dab-Thr-^DDab-Cit-Cys-Dab-Thr-Tyr] (HELM PEPTIDE1{V.[Hyp].I.[Dab].Y.[Pen].N.R.[Dab].T.[NCC[C@@H](N[*:1])C(=O)[*:2]].[Cit].C.[Dab].T.Y}$PEPTIDE1,PEPTIDE1,6:R3-13:R3$$$V2.0) | <1% | 0.125 µg/mL | 0.25 µg/mL | 0.125 µg/mL
CC[C@H](C)[C@H](NC(=O)[C@@H]1CCCN1C(=O)[C@@H](N)C(C)C)C(=O)N[C@H](C(=O)N[C@@H](Cc1ccc(O)cc1)C(=O)N[C@@H]1C(=O)N[C@@H](CC(N)=O)C(=O)N[C@@H](CCCNC(=N)N)C(=O)N[C@@H](CCN)C(=O)N[C@@H]([C@@H](C)O)C(=O)N[C@H](CCN)C(=O)N[C@@H](CCCCN)C(=O)N[C@H](C(=O)N[C@@H](CCN)C(=O)N[C@@H](CCCNC(=N)N)C(=O)N[C@@H](Cc2ccc(O)cc2)C(=O)O)CSSC1(C)C)[C@@H](C)O [Example 80, Val-Pro-Ile-Thr-Tyr-Pen-Asn-Arg-Dab-Thr-^DDab-Lys-Cys-Dab-Arg-Tyr] (HELM PEPTIDE1{V.P.I.T.Y.[Pen].N.R.[Dab].T.[NCC[C@@H](N[*:1])C(=O)[*:2]].K.C.[Dab].R.Y}$PEPTIDE1,PEPTIDE1,6:R3-13:R3$$$V2.0) | <1% | 0.125 µg/mL | 0.25 µg/mL | 0.0625 µg/mL
CC[C@H](C)[C@H](NC(=O)[C@@H]1C[C@@H](Oc2ccccc2)CN1C(=O)[C@@H](N)C(C)C)C(=O)N[C@H](C(=O)N[C@@H](Cc1ccc(O)cc1)C(=O)N[C@@H]1C(=O)N[C@@H](CC(N)=O)C(=O)N[C@@H](CCCNC(=N)N)C(=O)N[C@@H](CCN)C(=O)N[C@@H]([C@@H](C)O)C(=O)N[C@H](CCN)C(=O)N[C@@H](CCCCN)C(=O)N[C@H](C(=O)N[C@@H](CCN)C(=O)N[C@@H](CCCNC(=N)N)C(=O)N[C@@H](Cc2ccc(O)cc2)C(=O)O)CSSC1(C)C)[C@@H](C)O [Example 129, Val-Pro(4,4F2)-Ile-Thr-Tyr-Pen-Asn-Arg-Dab-Thr-^DDab-Lys-Cys-Dab-Arg-Tyr] (HELM PEPTIDE1{V.[O=C([C@@H]1C[C@@H](Oc2ccccc2)CN1[*:1])[*:2]].I.T.Y.[Pen].N.R.[Dab].T.[NCC[C@@H](N[*:1])C(=O)[*:2]].K.C.[Dab].R.Y}$PEPTIDE1,PEPTIDE1,6:R3-13:R3$$$V2.0) | <1% | 0.125 µg/mL | 0.5 µg/mL | 0.0625 µg/mL
CC[C@H](C)[C@H](NC(=O)[C@@H](NC(=O)[C@@H]1C[C@@H](O)CN1C(=O)[C@@H](N)C(C)C)[C@@H](C)CC)C(=O)N[C@@H](Cc1ccc(O)cc1)C(=O)N[C@@H]1C(=O)N[C@@H](CC(N)=O)C(=O)N[C@@H](CCCNC(=N)N)C(=O)N[C@@H](CCN)C(=O)N[C@@H]([C@@H](C)O)C(=O)N[C@H](CCN)C(=O)N[C@@H](CCCCN)C(=O)N[C@H](C(=O)N[C@@H](CCN)C(=O)N[C@@H](CCCN)C(=O)N[C@@H](Cc2ccc(O)cc2)C(=O)O)CSSC1(C)C [Example 85, Val-Hyp-Ile-Ile-Tyr-Pen-Asn-Arg-Dab-Thr-^DDab-Lys-Cys-Dab-Orn-Tyr] (HELM PEPTIDE1{V.[Hyp].I.I.Y.[Pen].N.R.[Dab].T.[NCC[C@@H](N[*:1])C(=O)[*:2]].K.C.[Dab].[Orn].Y}$PEPTIDE1,PEPTIDE1,6:R3-13:R3$$$V2.0) | <1% | 0.125 µg/mL | 0.25 µg/mL | 0.0625 µg/mL
CC[C@H](C)[C@H](NC(=O)[C@@H](NC(=O)[C@@H]1C[C@@H](O)CN1C(=O)[C@@H](N)C(C)C)[C@@H](C)CC)C(=O)N[C@@H](Cc1ccc(O)cc1)C(=O)N[C@@H]1C(=O)N[C@@H](CC(N)=O)C(=O)N[C@@H](CCCNC(=N)N)C(=O)N[C@@H](CCN)C(=O)N[C@@H](CO)C(=O)N[C@H](CCN)C(=O)N[C@@H](CCCCN)C(=O)N[C@H](C(=O)N[C@@H](CCN)C(=O)N[C@@H](CCCN)C(=O)N[C@@H](Cc2ccc(O)cc2)C(=O)O)CSSC1(C)C [Example 86, Val-Hyp-Ile-Ile-Tyr-Pen-Asn-Arg-Dab-Ser-^DDab-Lys-Cys-Dab-Orn-Tyr] (HELM PEPTIDE1{V.[Hyp].I.I.Y.[Pen].N.R.[Dab].S.[NCC[C@@H](N[*:1])C(=O)[*:2]].K.C.[Dab].[Orn].Y}$PEPTIDE1,PEPTIDE1,6:R3-13:R3$$$V2.0) | <1% | 0.125 µg/mL | 0.25 µg/mL | 0.0625 µg/mL
